Assay results from patent US7265156B2 (Dospharma, priority 2000, dated 2007).
Where a name gives a salt, the structure may show the parent alone. Read-outs that look alike come from different tables or passages of the source.

Experiments:
[1] = test system: rats made diabetic with fructose; assay: Anti-diabetic activity in rats made diabetic with fructose at 10% in the drinking water; type: in vivo, rat; settings: for 21 days fructose (glycemia mM) / Control (glycemia mM): rats; for 21 days fructose (glycemia mM): group baseline after 21 days fructose, before treatment; for Control (glycemia mM): group baseline before fructose and before treatment
Description: The second model is prepared by administering fructose at 10% in the drinking water of the rats for three weeks. An insulin resistance develops, followed by diabetes of […] type. […]

[2] = test system: NIDDM patients; settings: humans, simultaneous administration, arginine 30 g intravenous over 30 min; cited from earlier work
[3] = 50 mg/kg
[4] = test system: streptozotocine model and fructose model; settings: rats, 50 mg/kg; cited from earlier work
[5] = test system: rats made diabetic with streptozotocin; assay: Anti-diabetic activity in rats made diabetic with streptozotocin; type: in vivo, rat; settings: streptozotocin rats (50 mg/kg IP); for hyperglycemia after treatment: 30 mg/kg; for hyperglycemia before treatment: baseline of the 30 mg/kg group
Source text: From the pharmacological point of view, the anti-diabetic activity was studied on two models of rats made diabetic.

[6] = test system: hamsters made diabetic by fructose; assay: Anti-diabetic activity in hamsters made diabetic by fructose for three months; type: in vivo, hamster; settings: for 2 weeks treatment (glycemia mg/dl): hamsters, fructose 3 months, 10 mg/kg/day, fructose only 143, control without fructose 91 mg/dl
Description: The anti diabetic activity was also tested on hamsters made diabetic by the administration of fructose for three months. […]

[7] = In vitro assay of cleavage in an intestinal juice; type: in vitro ADME; settings: 37° C., arginine hemisuccinimide part not modified
Description: A preparation of intestinal juice containing trypsin, peptidases, lipase, amylase and all the other enzymes of the exocrine pancreas is used. This assay is validated beforehand using calibration compounds. A known amount (of the order of one microgram) of the compound A′V′C′ is mixed together with a known amount of intestinal juice (the trypsin and lipase contents of which are controlled). The reaction mixture is kept at 37° C. for one hour. This time is compatible with the intestinal transit. Samples are taken every 15 min, and the products A and C are detected and their concentration measured using HPLC coupled to a UV detector, or a mass spectrometer if it is not possible to use UV. The columns used depend on the nature of A and of C, but are generally ion-exchange columns, because of the presence of released alcohol, amine or acid forms. […] This assay can be coupled with determination of the release of A (biguanide), C (transporter) and V in the gastric juice, using exactly the same principle but replacing the intestinal juice with gastric juice.
A second assay is carried out on a rat hepatocyte culture, according to the method described above.

[8] = test system: microcirculation of the hamster cheek pouch; assay: Study on the cheek pouch of the hamster (microcirculation); type: in vivo; settings: vasodilatory action of arginine and action of metformin on vasomotion

| Compound | 4 days treatment (glycemia mM) ([1]; fructose rats, 30 mg/kg/day) [mM] | 8 days treatment (glycemia mM) ([1]; fructose rats, 30 mg/kg/day) [mM] | 12 days treatment (glycemia mM) ([1]; fructose rats, 30 mg/kg/day) [mM] | 21 days treatment (glycemia mM) ([1]; fructose rats, 30 mg/kg/day) [mM] | 21 days fructose (glycemia mM) [1] [mM] | Control (glycemia mM) [1] [mM] | hyperglycemia after treatment [5] [mM] | hyperglycemia before treatment [5] [mM] | 2 weeks treatment (glycemia mg/dl) [6] [mg/dL] | also measured |
| --- | --- | --- | --- | --- | --- | --- | --- | --- | --- | --- |
| N=C(N)NCCC[C@H](N)C(=O)O [arginine] | 14.37 ± 0.20 | 12.56 ± 0.89 | 11.98 ± 0.71 | 10.73 ± 1.27 | 13.24 ± 0.62 | 6.87 ± 0.14 | – | – | – | effect on the antihyperglycemic effects of metformin [2]: not modified |
| CN(C)C(=N)N=C(N)N [metformin hydrochloride] | – | – | – | – | – | – | – | – | – | concentration peak ([3]; rat, in vivo, po): 3.9 µg/mL; time of concentration peak ([3]; rat, in vivo, po): ≤ 90 min; activity on conventional models of non-insulin dependent diabetes [4]: active |
| CN(C)C(=N)NC(=N)N [metformin, N,N-dimethylimidodicarbonimidic diamide] | 13.41 ± 0.52 | 10.83 ± 0.64 | 9.78 ± 0.72 | 9.87 ± 0.68 | 12.52 ± 0.52 | 6.94 ± 0.13 | 9.85 | 12.11 | 112 | effect on the hemodynamic and hemorheological action of arginine [2]: potentiates |
| arginine hemisuccinimide-metformin hemisuccinate | – | – | – | – | 12.14 ± 0.28 | 6.84 ± 0.06 | 7.56 | 12.66 | 93 | release of the metformin [7]: Immediate release; 4 days treatment (glycemia mM) ([1]; fructose rats, 70 mg/kg/day): 10.92 ± 0.44 mM; 8 days treatment (glycemia mM) ([1]; fructose rats, 70 mg/kg/day): 9.13 ± 0.64 mM; 12 days treatment (glycemia mM) ([1]; fructose rats, 70 mg/kg/day): 8.43 ± 0.52 mM; 21 days treatment (glycemia mM) ([1]; fructose rats, 70 mg/kg/day): 7.76 ± 0.78 mM; anti-diabetic activity compared with metformin alone ([1]; fructose rats, equivalent dose of metformin base): significantly more active; anti-diabetic activity compared with metformin on its own ([6]; fructose hamsters, equal dose of 10 mg/kg/day, two weeks of treatment): significantly more active; effects on the microcirculation [8]: reproduces at least the effects of the two active principles; time of concentration peak ([3]; rats, oral, plasma metformin): 60 min |
